pEC50, pIC50: −log10 of the molar value. Read-outs that look alike come from different tables or passages of the source.
What was measured:
[1] = target: T1, LPAR1 (Mus musculus, UniProt P61793); assay: In vivo lung receptor occupancy with [3H]-PIPE-497; conditions: for pEC50: read-out: lung receptor occupancy EC50 (plasma concentration)
T1 construct: from tissue; host or cells: lung of female C57BL6/N mice, dosed in vivo
Experimental: [^3H]-PIPE-497 was diluted to 9.8 µCi/mL in saline and administered via IV injection to the lateral tail vein at a dose volume of 5 mL/kg. Five minutes following radioligand administration, mice were euthanized by decapitation, trunk blood collected into K3EDTA tubes and stored on wet ice, each lung rapidly dissected, weighed and placed into a 5 mL polypropylene tube. Tissues were diluted with a 10x volume of ice-cold binding buffer (50 mM HEPES, 100 mM NaCl2, 2 mM EDTA). Lungs were then homogenized (25,000 rpm, 7 s). 300 µL of homogenate was filtered over Whatman GF/B filters (GE Life Sciences, Marlborough, MA) which had been pre-wetted with 0.5% polyethyleneimine prior to loading onto the Hoefer vacuum manifold. Filters were washed once by applying 3 mL ice-cold wash buffer (50 mM Tris, 154 mM NaCl, 0.05% Tween 20) to the manifold for a total of 2 washes. […] Washed filters were removed from the manifold and air dried. Following completion of filtration of all samples, uncapped scintillation vials were placed into an oven (~ 40–50 °C) for ~ 30 min to ensure complete drying. Five (5) mL Ultima Gold F scintillation fluid was added to each tube. Tubes were capped, gently agitated, and dark equilibrated for 30 min then read on a Beckman LS6500 liquid scintillation counter for tritium disntegrations per minute measurements. After all samples were collected, dissected, and filtered, the previously collected blood in K3EDTA tubes was centrifuged (1450 x g, 10 min, 4 °C) to separate plasma.

[2] = target: LPAR1 (Homo sapiens, UniProt Q92633); assay: LPA-induced calcium mobilization in transiently transfected HEK293T cells; assay type: cell-based; set-up: host or cells: HEK293T; conditions: 3 h preincubation; LPA at EC80 5 µM
Chain of LPAR1 (Homo sapiens, UniProt Q92633) (Q92633 whole entry): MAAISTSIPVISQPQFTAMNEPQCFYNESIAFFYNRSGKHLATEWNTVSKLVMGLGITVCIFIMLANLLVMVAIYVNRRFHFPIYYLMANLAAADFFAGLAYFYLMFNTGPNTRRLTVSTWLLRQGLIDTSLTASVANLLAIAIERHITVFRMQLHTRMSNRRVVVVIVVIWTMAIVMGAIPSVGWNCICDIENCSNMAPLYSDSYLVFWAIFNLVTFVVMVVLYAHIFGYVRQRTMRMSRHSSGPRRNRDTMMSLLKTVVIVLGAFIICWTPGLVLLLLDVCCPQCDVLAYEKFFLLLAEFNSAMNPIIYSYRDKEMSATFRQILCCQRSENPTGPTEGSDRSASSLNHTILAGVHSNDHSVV
Experimental: We had previously assessed selectivity against LPAR2 and 3 [11]. […] Human LPAR1-6 plasmids were each transiently transfected into HEK293T cells and the EC80 (effective concentration producing 80% maximal effect) for LPA activation empirically determined. Selectivity was then tested in a concentration response paradigm using a 3 h preincubation followed by LPA-induced calcium mobilization.
Plasmids containing human LPAR1-6 were obtained from Origene (Rockville, MD) and maxiprepped at Eton Biosciences (San Diego, CA). Transfection mix was prepared by adding Fugene 6 transfection mix to serum free media and 0.1 µg plasmid. After a 20 m incubation, HEK293T cells (ATCC, Manassas VA) were lifted with Accutase and added to the Fugene mix at a final concentration of 0.5 × 10^4 cells/well. Cells were then plated on black clear bottom 96-well plates and incubated overnight in a 37 °C, 5% CO2 incubator. […] During the last hour of incubation, media was removed and replaced with Fluo-4 NW calcium assay dye prepared as per manufacturer’s recommendations in assay buffer. Agonist plates containing LPA were prepared for individual receptor subytpes using their respective EC80. Calcium mobilization was measured as per manufacturer’s directions on a Flexstation 3 (Molecular Devices, San Jose, CA).

[3] = Rat plasma pharmacokinetics after oral dose; assay type: in vivo; conditions: 10 mg/kg oral, n=2
Experimental: This distinct, long-lived pharmacokinetic profile would support a dosing frequency less than that of other LPAR1 antagonists described in the literature.
Plasma and lung homogenate samples were thawed and further diluted as necessary with naïve mouse plasma or naïve lung homogenate matrix. […] Plasma drug concentrations were calculated by comparison of peak area ratios of analyte/IS to the prepared calibration standards using Sciex Analyst software.

[4] = once per day for 4 days (steady state), 3 h after last dose

T1 sequence (P61793 whole entry): as the sequence (Q92633 whole entry) above, with I4A, I8S, P22Q, H40Y, I61V, E193D, N194H, I269V, S331N, T335N counted along it

For `COc1ccc(NC(=O)N(c2ccccc2C(C)C)C2CCC(C(=O)O)CC2)c(OC(F)F)n1` (stereo not drawn) [PIPE-791], the “increase in potency when dosed 3 versus 24 h prior to radioligand” value ([1]; in vivo receptor occupancy) was 20 fold, the “lung receptor occupancy ED50” value [1, 4] was 0.1 mg/kg and the pEC50 [1, 4] was 7.74. For the same compound, the EC90 ([1]; once per day for 4 days (steady state), read-out: lung receptor occupancy EC90 (total plasma concentration)) was 50 nM, the “lung receptor occupancy ED50” value ([1]; single oral dose 3 h prior to radioligand) was 0.5 mg/kg and the “lung receptor occupancy ED50” value ([1]; single oral dose 24 h prior to radioligand) was 0.09 mg/kg. The pEC50 ([1]; single oral dose, 3 h) was 7.10, the “radiotracer displacement (LPAR1 receptor occupancy) in lung” value ([1]; single oral dose, 3 h post dose) was “Significant radiotracer displacement (LPAR1 receptor occupancy) was observed at 3 mg/kg” and the pEC50 ([1]; single oral dose, 24 h) was 8.40. For the same compound, the “radiotracer displacement (LPAR1 receptor occupancy) in lung” value ([1]; single oral dose, 24 h post dose) was “significant occupancy was observed at both 0.3 and 3 mg/kg”, the pIC50 [2] was 8.10 and the “plasma unbound concentration at 24 h post-dose versus calcium mobilization IC50” value [3] was “exceeded the in vitro calcium mobilization IC50”.
